Data set [1] deals with alcohol oxidase (alcohol: oxygen oxidoreductase) isolated from Pichia pastoris (Komagataella phaffii, UniProt F2QY27).
Substrate in data set [2]: CO
The experiment in a line: purified protein, by the assay type. Particulars: other: Pichia pastoris alcohol oxidase; substrate methanol.

As a reminder, the Km is the concentration of substrate that gives half-maximal velocity.

For the molecule `C=O` [HCHO, formaldehyde], in data set [1] (Table I lists HCHO as inhibitor at >30 mM), the “Inhibitors (inhibitory concentration of HCHO)” value is on record as more than 30 mM.

On to `CO` [methanol], for which the Km in data set [1] (read-out: apparent Michaelis constant, Km, for methanol, substrate methanol) is approximately 4 mM.

B1: alcohol oxidase (alcohol: oxygen oxidoreductase) isolated from Pichia pastoris (Komagataella phaffii CBS 7435) (protein)
chain: AIPEEFDILVLGGGSSGSCIAGRLANLDHSLKVGLIEAGENNLNNPWVYLPGIYPRNMKLDSKTASFYTSNPSPHLNGRRAIVPCANVLGGGSSINFMMYTRGSASDYDDFQAEGWKTKDLLPLMKKTETYQRACNNPDIHGFEGPIKVSFGNYTYPVCQDFLRASESQGIPYVDDLEDLVTAHGAEHWLKWINRDTGRRSDSAHAFVHSTMRNHDNLYLICNTKVDKIIVEDGRAAAVRTVPSKPLNPKKPSHKIYRARKQIVLSCGTISSPLVLQRSGFGDPIKLRAAGVKPLVNLPGVGRNFQDHYCFFSPYRIKPQYESFDDFVRGDAEIQKRVFDQWYANGTGPLATNGIEAGVKIRPTPEELSQMDESFQEGYREYFEDKPDKPVMHYSIIAGFFGDHTKIPPGKYMTMFHFLEYPFSRGSIHITSPDPYAAPDFDPGFMNDERDMAPMVWAYKKSRETARRMDHFAGEVTSHHPLFPYSSEARALEMDLETSNAYGGPLNLSAGLAHGSWTQPLKKPTAKNEGHVTSNQVELHPDIEYDEEDDKAIENYIREHTETTWHCLGTCSIGPREGSKIVKWGGVLDHRSNVYGVKGLKVGDLSVCPDNVGCNTYTTALLIGEKTATLVGEDLGYSGEALDMTVPQFKLGTYEKTGLARF
Regarding B1, the Km in data set [2] came out at 4 mM.

(Values after US4414334A, “Oxygen scavenging with enzymes” (Phillips Petroleum Company, priority 1981, dated 1983).)
